Reference: EP1874311B1, “A METHOD FOR PREVENTING, DELAYING OR REVERTING ABNORMAL AMYLOID DEPOSITION” (Research & Innovation S.p.A., priority 2005, dated 2006)
Read-outs that look alike come from different tables or passages of the source. Marks after values point to notes of the source that are not given here.

Columns and labels:
H4/APP cells = test: Secretion of total beta-amyloid into culture medium of H4/APP cells (ELISA); assay type: cell-based, Human; settings: for activity at 10 µM / activity at 30 µM: read-out: beta-amyloid concentration in culture medium; for beta-amyloid concentration in culture medium: h4/app cells, 120 min
Protocol: Human neuroglioma (H4) cells, stably transfected with the gene codifying for the human protein APP695 having mutations related to Alzheimer disease, have been used.
Cells were grown in OPTI-MEM containing 10% FBS (foetal bovine serum), hygromycin (0.2 mg/ml) and blasticidine (0.002 mg/ml).
The Aβ peptide in cells is produced by the sequential processing of beta- and gamma-secretases proteases and is then secreted in the culture medium.
Peptide concentration in the extracellular medium was measured using a specific ELISA methodology.
Confluent H4/APP cells where incubated for 2 h with the vehicle (0.1 % DMSO) or with nicardipine at different concentrations (3µM, 10µM, 30µM), beta-amyloid concentration in culture medium is expressed as % control

TG2576 mice = test: Plasma amyloidogenic Aβ peptides in TG2576 mice after i.p. administration (ELISA); assay type: in vivo; settings: 3 hours after 10 mg/kg i.p.; for Aβ1-42 (%) / Total Aβ (%): before treatment = 100
Protocol: The selected dihydropyridine, nicardipine (see table 2) as well as nimodipine were administered, in TG2576 animals, at dose of 10 mg/Kg i.p. Animals were bleed before treatment for assessment of basal circulating Aβ peptides as well as 3 hours post-treatment. Determination of blood amyloidogenic Aβ peptide concentration was performed using ELISA technique.
Table 2 Levels of the amyloidogenic peptides in plasma of TG2576 mice before and 3 hours following administration of the exemplified dihydropyridines

[1] = Homo sapiens, 10µM, 2 h incubation, confluent H4/APP cells, vehicle = 100
[2] = Homo sapiens, 30µM, 2 h incubation, confluent H4/APP cells, vehicle = 100

Row | Structure (SMILES) | Aβ1-42 (%) (TG2576 mice) | Total Aβ (%) (TG2576 mice) | activity at 10 µM (H4/APP cells; [1]) [%] | activity at 30 µM (H4/APP cells; [2]) [%] | further results
1 | COC(=O)C1=C(C)NC(C)=C(C(=O)OCCCN2CCC(c3ccccc3)(c3ccccc3)CC2)C1c1cccc([N+](=O)[O-])c1 (single isomer, unassigned; (+)) [(+)Niguldipine, (+)niguldipine] |  |  |  |  | activity at 10 µM (H4/APP cells; Homo sapiens, 2 h): 71%; activity at 30 µM (H4/APP cells; Homo sapiens, 2 h): 43%; inhibition at 30 µM (H4/APP cells; Homo sapiens, read-out: inhibition of the extracellular amount of Aβ peptides): 57%
2 | COC(=O)C1=C(C)NC(C)=C(C(=O)OCCCN2CCC(c3ccccc3)(c3ccccc3)CC2)C1c1cccc([N+](=O)[O-])c1 (single isomer, unassigned; (-)) [(-)Niguldipine, (-)niguldipine] |  |  |  |  | inhibition of the extracellular amount of Aβ peptides (H4/APP cells; 30 µM): 53%; beta-amyloid concentration in culture medium (H4/APP cells; 10 µM): 68* % control; beta-amyloid concentration in culture medium (H4/APP cells; 30 µM): 47* % control
3 | COCCOC(=O)C1=C(C)NC(C)=C(C(=O)OC(C)C)C1c1cccc([N+](=O)[O-])c1 (stereo not shown) [Nimodipine, nimodipine] | 156 | 87 |  |  | Total Aβ (pM) (TG2576 mice; n=7): 759,1±27,0 pM
4 | COC(=O)C1=C(C)NC(C)=C([N+](=O)[O-])C1c1ccccc1C(F)(F)F (stereo not shown) [BayK 8644] |  |  | 98 | 96 | beta-amyloid content in culture media from H4/APP cells (H4/APP cells; result in words): did not affect
5 | COC(=O)C1=C(C)NC(C)=C(C(=O)OCCN(C)Cc2ccccc2)C1c1cccc([N+](=O)[O-])c1 (stereo not shown) [Nicardipine, nicardipine] | 176 | 170 | 62 | 58 | 
